Laboratory results from ChEMBL document CHEMBL2331527, “New imidazo[1,2-a]pyridines carrying active pharmacophores: synthesis and anticonvulsant studies” (Bioorg Med Chem Lett, 2013).

Key:
[1] = system: Mus musculus; assay: Anticonvulsant activity against subcutaneous pentylenetetrazole-induced seizures in mouse assessed as onset time for clonic seizures at 10 mg/kg, ip measured after 0.5 hrs by pentylene tetrazole test (reference value: 59.2 +/-1.11 secs); format: functional
[2] = system: Mus musculus; assay: Anticonvulsant activity against subcutaneous pentylenetetrazole-induced seizures in mouse assessed as onset time for tonic seizures at 10 mg/kg, ip measured after 0.5 hrs by pentylene tetrazole test (reference value: 385.5 +/-10.90 secs); format: functional; details: route intraperitoneal
[3] = system: Mus musculus; assay: Anticonvulsant activity against maximal electroshock-induced seizures in NMRI mouse assessed as duration of tonic hindlimb extension at 10 mg/kg, ip measured after 0.5 hrs by maximal electroshock test (reference value: 15.35 +/-0.60%); format: functional; details: route intraperitoneal
[4] = system: Mus musculus; assay: Anticonvulsant activity against maximal electroshock-induced seizures in NMRI mouse assessed as latency period for the onset of clonus at 10 mg/kg, ip measured after 0.5 hrs by maximal electroshock test (reference value: 2.18 +/-0.47 secs); format: functional; details: route intraperitoneal
[5] = system: Mus musculus; assay: Neurotoxicity in ip dosed mouse assessed as minimum effective dose required to induce motor impairment measured after 0.5 hrs by Rotarod test; format: toxicity, organism-based; details: in vivo
[6] = system: Mus musculus; assay: Neurotoxicity in ip dosed mouse assessed as minimum effective dose required to induce motor impairment measured after 4 hrs by Rotarod test; format: toxicity, organism-based; details: in vivo

| SMILES | Time [1] [s] | Time [2] [s] | Time [3] [s] | Time [4] [s] | MED [5] | MED [6] |
| --- | --- | --- | --- | --- | --- | --- |
| Cc1ccc(C2=NNC(c3c(-c4ccccc4)nc4c(C)cccn34)C2)cc1 (centres undefined) | 126.7 | 532.5 | 7.22 | 9.28 | – | – |
| COc1nc(-c2ccc(C)cc2)cc(-c2c(-c3ccccc3)nc3c(C)cccn23)c1C#N | 170.7 | 595.7 | 6.85 | 10.9 | Non-toxic | Non-toxic |
| Cc1cccn2c(C3CC(c4ccc(Cl)cc4)=NN3)c(-c3ccc(F)cc3)nc12 (centres undefined) | 158.7 | 542.2 | 7.21 | 9.45 | Non-toxic | Non-toxic |
| COc1nc(-c2ccc([N+](=O)[O-])cc2)cc(-c2c(-c3ccccc3)nc3c(C)cccn23)c1C#N | 79.32 | 426.8 | 8.52 | 8.72 | Non-toxic | Non-toxic |
| Cc1cccn2c(-c3cc(-c4ccc([N+](=O)[O-])cc4)nc(N)n3)c(-c3ccc(F)cc3)nc12 | 85.33 | 435.8 | 8.67 | 8.8 | – | – |
| Cc1ccc(C2=CC(c3c(-c4ccccc4)nc4c(C)cccn34)NC(=S)N2)cc1 (centres undefined) | 79.34 | 426.5 | 7.45 | 9.75 | Non-toxic | Non-toxic |
| Cc1cccn2c(-c3cc(-c4ccccc4)nc(N)n3)c(-c3ccc(F)cc3)nc12 | 115.7 | 469.2 | 8.27 | 8.11 | Non-toxic | Non-toxic |
| COc1nc(-c2ccccc2)cc(-c2c(-c3ccc(F)cc3)nc3c(C)cccn23)c1C#N | 171.5 | 596 | 7.77 | 9.9 | Non-toxic | Non-toxic |
| Cc1ccc(-c2cc(-c3c(-c4ccc(F)cc4)nc4c(C)cccn34)nc(N)n2)cc1 | 171.4 | 593.2 | 8.15 | 8.16 | Non-toxic | Non-toxic |
| CN1C(=O)CN=C(c2ccccc2)c2cc(Cl)ccc21 [DIAZEPAM] | – | – | – | 13.17 | Non-toxic | Non-toxic |
| Cc1cccn2c(C3C=C(c4ccc(Cl)cc4)NC(=S)N3)c(-c3ccc(F)cc3)nc12 (centres undefined) | 82.5 | 435 | 7.77 | 9.9 | – | – |
| Cc1cccn2c(-c3cc(-c4ccc(Cl)cc4)nc(N)n3)c(-c3ccc(F)cc3)nc12 | 109.7 | 480.2 | 9.88 | 7.95 | – | – |
| Cc1cccn2c(C3CC(c4ccccc4)=NN3)c(-c3ccc(F)cc3)nc12 (centres undefined) | 149.3 | 528.2 | 6.54 | 10.97 | Non-toxic | Non-toxic |
| Cc1cccn2c(C3C=C(c4ccc(F)cc4)NC(=S)N3)c(-c3ccccc3)nc12 (centres undefined) | 90.83 | 454.7 | 6.87 | 10.91 | Non-toxic | Non-toxic |
| COc1nc(-c2ccc(C)cc2)cc(-c2c(-c3ccc(F)cc3)nc3c(C)cccn23)c1C#N | 335.3 | 611.5 | 9.84 | 7.94 | Non-toxic | Non-toxic |
| COc1nc(-c2ccc(F)cc2)cc(-c2c(-c3ccccc3)nc3c(C)cccn23)c1C#N | 90.87 | 456.7 | 6.96 | 10.77 | Non-toxic | Non-toxic |
| Cc1cccn2c(-c3cc(-c4ccc([N+](=O)[O-])cc4)[nH]c(=O)c3C#N)c(-c3ccc(F)cc3)nc12 | 171.8 | 641.5 | 6.61 | 10.88 | Non-toxic | 100 mg/kg |
| Cc1ccc(-c2nc3c(C)cccn3c2C2CC(c3cccs3)=NN2)cc1 (centres undefined) | 117.7 | 530.8 | 7.27 | 9.33 | Non-toxic | Non-toxic |
| Cc1cccn2c(C3C=C(c4ccccc4)NC(=S)N3)c(-c3ccc(F)cc3)nc12 (centres undefined) | 107 | 479.7 | 8.13 | 8.04 | Non-toxic | Non-toxic |
| Cc1cccn2c(-c3cc(-c4cccs4)nc(N)n3)c(-c3ccccc3)nc12 | 79.5 | 426.8 | 8.71 | 8.86 | Non-toxic | Non-toxic |
| Cc1ccc(-c2cc(-c3c(-c4ccccc4)nc4c(C)cccn34)nc(N)n2)cc1 | 90.83 | 454.7 | 8.52 | 8.72 | Non-toxic | Non-toxic |
| COc1nc(-c2ccc([N+](=O)[O-])cc2)cc(-c2c(-c3ccc(F)cc3)nc3c(C)cccn23)c1C#N | 115.7 | 469.2 | 7.01 | 9.13 | – | – |
| Cc1cccn2c(C3CC(c4ccc(F)cc4)=NN3)c(-c3ccccc3)nc12 (centres undefined) | 79.32 | 426.8 | 7.15 | 9.25 | – | – |
| Cc1cccn2c(-c3cc(-c4ccc(Cl)cc4)[nH]c(=O)c3C#N)c(-c3ccc(F)cc3)nc12 | 129.2 | 544.7 | 6.54 | 10.97 | Non-toxic | Non-toxic |
